± gives the expanded uncertainty stated by the source.
Details: 101.33 kPa, Liquid; for speed of sound: Pulse-echo method

Which mass density (288.15 K) does the source give for `CCCCN(CCCC)CCCC` [tributylamine] here?
The mass density was 781.336 ± 0.5 kg/m3.

And the speed of sound (288.15 K)?
The speed of sound was 1285 ± 0.83 m/s.

And the mass density (293.15 K)?
The mass density was 777.632 ± 0.51 kg/m3.

And the speed of sound (293.15 K)?
The speed of sound was 1266.4 ± 0.82 m/s.

What about the mass density (298.15 K) of the same molecule?
The mass density was 773.913 ± 0.51 kg/m3.

And the speed of sound (298.15 K)?
The speed of sound was 1247.6 ± 0.81 m/s.

And the mass density (303.15 K)?
The mass density was 770.183 ± 0.52 kg/m3.

What about the speed of sound (303.15 K) of the same molecule?
Its speed of sound is 1229 ± 0.81 m/s.

What about the mass density (308.15 K) of the same molecule?
Its mass density is 766.44 ± 0.53 kg/m3.

And the speed of sound (308.15 K)?
Its speed of sound is 1210.4 ± 0.8 m/s.

What does the source list for `CCCCN` [1-butanamine]?
mass density (288.15 K): 742.865 ± 0.56 kg/m3; speed of sound (288.15 K): 1296.1 ± 0.83 m/s; mass density (293.15 K): 738.096 ± 0.57 kg/m3; speed of sound (293.15 K): 1273.6 ± 0.82 m/s; mass density (298.15 K): 733.301 ± 0.58 kg/m3; speed of sound (298.15 K): 1250 ± 0.82 m/s; mass density (303.15 K): 728.477 ± 0.58 kg/m3; speed of sound (303.15 K): 1228.9 ± 0.81 m/s; mass density (308.15 K): 723.625 ± 0.59 kg/m3; speed of sound (308.15 K): 1205.7 ± 0.8 m/s

Which mass density (288.15 K) does the source give for `CCCOCC(C)OCC(C)O` (stereo not given) [1-(1-methyl-2-propoxyethoxy)-2-propanol] here?
The mass density was 924.348 ± 0.29 kg/m3.

And the speed of sound (288.15 K)?
The speed of sound was 1306.3 ± 0.83 m/s.

And the mass density (293.15 K)?
The mass density was 919.954 ± 0.29 kg/m3.

What about the speed of sound (293.15 K) of the same molecule?
Its speed of sound is 1287.9 ± 0.83 m/s.

And the mass density (298.15 K)?
The mass density was 915.522 ± 0.3 kg/m3.

And the speed of sound (298.15 K)?
The speed of sound was 1269.9 ± 0.82 m/s.

What about the mass density (303.15 K) of the same molecule?
Its mass density is 911.078 ± 0.31 kg/m3.

And the speed of sound (303.15 K)?
Its speed of sound is 1251.7 ± 0.82 m/s.

What about the mass density (308.15 K) of the same molecule?
The mass density was 906.642 ± 0.31 kg/m3.

What about the speed of sound (308.15 K) of the same molecule?
The speed of sound was 1234.1 ± 0.81 m/s.

Which mass density (288.15 K) does the source give for `CCCCNCCCC` [dibutylamine] here?
The mass density was 766.115 ± 0.53 kg/m3.

What about the speed of sound (288.15 K) of the same molecule?
The speed of sound was 1289.2 ± 0.83 m/s.

And the mass density (293.15 K)?
Its mass density is 762.022 ± 0.53 kg/m3.

What about the speed of sound (293.15 K) of the same molecule?
The speed of sound was 1269.5 ± 0.82 m/s.

And the mass density (298.15 K)?
The mass density was 757.784 ± 0.54 kg/m3.

And the speed of sound (298.15 K)?
Its speed of sound is 1246.7 ± 0.81 m/s.

What about the mass density (303.15 K) of the same molecule?
The mass density was 752.284 ± 0.55 kg/m3.

What about the speed of sound (303.15 K) of the same molecule?
Its speed of sound is 1226.7 ± 0.81 m/s.

What about the mass density (308.15 K) of the same molecule?
The mass density was 748.17 ± 0.55 kg/m3.

What about the speed of sound (308.15 K) of the same molecule?
The speed of sound was 1207 ± 0.8 m/s.

From the NIST ThermoML archive (doi:10.1007/s10765-009-0593-3)
